ChEMBL document CHEMBL1221220, “Transport and signaling via the amino acid binding site of the yeast Gap1 amino acid transceptor” (Nat Chem Biol, 2009)
Activity calls are given as the source filed them. No cut-off for these calls is given here. Residues, ends and D or L forms follow the SMILES beside them.

T1: General amino-acid permease GAP1 (Saccharomyces cerevisiae) (UniProt P19145)
T1 sequence (whole entry): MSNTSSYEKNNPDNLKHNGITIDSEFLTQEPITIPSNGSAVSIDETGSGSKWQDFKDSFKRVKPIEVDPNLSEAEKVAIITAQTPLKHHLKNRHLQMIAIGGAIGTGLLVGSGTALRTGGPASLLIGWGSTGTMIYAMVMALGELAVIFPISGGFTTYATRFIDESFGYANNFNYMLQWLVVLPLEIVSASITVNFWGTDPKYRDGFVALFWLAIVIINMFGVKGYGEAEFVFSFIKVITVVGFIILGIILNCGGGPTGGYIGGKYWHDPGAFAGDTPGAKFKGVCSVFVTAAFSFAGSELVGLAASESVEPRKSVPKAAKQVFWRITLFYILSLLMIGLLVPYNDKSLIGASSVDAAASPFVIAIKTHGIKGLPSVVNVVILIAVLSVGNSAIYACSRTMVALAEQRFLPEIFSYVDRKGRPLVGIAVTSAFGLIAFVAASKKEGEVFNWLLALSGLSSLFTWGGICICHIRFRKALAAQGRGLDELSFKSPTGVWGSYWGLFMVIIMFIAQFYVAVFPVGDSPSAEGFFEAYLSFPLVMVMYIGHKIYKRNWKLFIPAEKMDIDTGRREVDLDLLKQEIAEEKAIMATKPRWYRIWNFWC

T2: General amino-acid permease GAP1 (Saccharomyces cerevisiae, UniProt P19145)
T2 sequence (P19145 whole entry): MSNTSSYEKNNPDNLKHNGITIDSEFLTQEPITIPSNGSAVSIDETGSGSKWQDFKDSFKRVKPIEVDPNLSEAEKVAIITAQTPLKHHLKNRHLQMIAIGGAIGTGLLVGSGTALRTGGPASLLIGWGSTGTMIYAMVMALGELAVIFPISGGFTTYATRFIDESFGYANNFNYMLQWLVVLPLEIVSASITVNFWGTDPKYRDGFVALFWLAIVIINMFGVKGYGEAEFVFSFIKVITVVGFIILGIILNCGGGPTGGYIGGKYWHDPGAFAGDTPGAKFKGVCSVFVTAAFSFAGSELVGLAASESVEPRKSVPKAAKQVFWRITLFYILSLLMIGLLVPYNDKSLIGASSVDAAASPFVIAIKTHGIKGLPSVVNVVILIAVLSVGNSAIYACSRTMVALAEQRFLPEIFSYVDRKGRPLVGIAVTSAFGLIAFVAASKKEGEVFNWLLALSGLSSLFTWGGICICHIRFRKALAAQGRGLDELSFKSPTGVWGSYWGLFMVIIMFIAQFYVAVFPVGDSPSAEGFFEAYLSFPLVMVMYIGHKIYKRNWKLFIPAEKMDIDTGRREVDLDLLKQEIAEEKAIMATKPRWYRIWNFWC

B1: General amino-acid permease GAP1 (Saccharomyces cerevisiae), P19145 (protein)
chain: MSNTSSYEKNNPDNLKHNGITIDSEFLTQEPITIPSNGSAVSIDETGSGSKWQDFKDSFKRVKPIEVDPNLSEAEKVAIITAQTPLKHHLKNRHLQMIAIGGAIGTGLLVGSGTALRTGGPASLLIGWGSTGTMIYAMVMALGELAVIFPISGGFTTYATRFIDESFGYANNFNYMLQWLVVLPLEIVSASITVNFWGTDPKYRDGFVALFWLAIVIINMFGVKGYGEAEFVFSFIKVITVVGFIILGIILNCGGGPTGGYIGGKYWHDPGAFAGDTPGAKFKGVCSVFVTAAFSFAGSELVGLAASESVEPRKSVPKAAKQVFWRITLFYILSLLMIGLLVPYNDKSLIGASSVDAAASPFVIAIKTHGIKGLPSVVNVVILIAVLSVGNSAIYACSRTMVALAEQRFLPEIFSYVDRKGRPLVGIAVTSAFGLIAFVAASKKEGEVFNWLLALSGLSSLFTWGGICICHIRFRKALAAQGRGLDELSFKSPTGVWGSYWGLFMVIIMFIAQFYVAVFPVGDSPSAEGFFEAYLSFPLVMVMYIGHKIYKRNWKLFIPAEKMDIDTGRREVDLDLLKQEIAEEKAIMATKPRWYRIWNFWC

Assays:
[1] = target: T1, General amino-acid permease GAP1 (Saccharomyces cerevisiae); experiment: Induction of nitrogen-starved wild type sigma1278b yeast Gap1-mediated […] activation at 5 mM in presence of 10 mM MTSEA treated before compound addition
[2] = target: T1, General amino-acid permease GAP1 (Saccharomyces cerevisiae); experiment: Induction of nitrogen-starved wild type sigma1278b yeast Gap1-mediated […] activation at 5 mM
[3] = target: T1, General amino-acid permease GAP1 (Saccharomyces cerevisiae); experiment: Competitive inhibition of nitrogen-starved wild type sigma1278b yeast Gap1-mediated amino acid uptake at 5 mM after 60 secs relative to L-citrulline
[4] = target: T1, General amino-acid permease GAP1 (Saccharomyces cerevisiae); experiment: Induction of nitrogen-starved wild type sigma1278b yeast Gap1-mediated amino acid uptake at 5 mM after 90 mins
[5] = target: T2, General amino-acid permease GAP1; experiment: Competitive inhibition of nitrogen-starved wild type sigma1278b yeast Gap1 by Lineweaver-Burke plot analysis
[6] = target: T2, General amino-acid permease GAP1; experiment: Noncompetitive inhibition of nitrogen-starved wild type sigma1278b Gap1-mediated amino acid transport by Lineweaver-Burke plot analysis
[7] = target: T1, General amino-acid permease GAP1 (Saccharomyces cerevisiae); experiment: Noncompetitive inhibition of nitrogen-starved wild type sigma1278b yeast Gap1-mediated amino acid uptake at 5 mM after 60 secs relative to L-citrulline
[8] = target: T1, General amino-acid permease GAP1 (Saccharomyces cerevisiae); experiment: Induction of nitrogen-starved wild type sigma1278b yeast Gap1-mediated […] activation at 10 mM
[9] = target: T1, General amino-acid permease GAP1 (Saccharomyces cerevisiae); experiment: Inhibition of L-Arg-L-Gly-L-Gly-induced nitrogen-starved wild type sigma1278b yeast Gap1
[10] = target: T1, General amino-acid permease GAP1 (Saccharomyces cerevisiae); experiment: Inhibition of nitrogen-starved wild type sigma1278b yeast Gap1 assessed as reduction of L-citrulline-mediated trehalose activation at 5 to 10 mM
[11] = substrate: NC(=O)NCCC[C@H](N)C(=O)O; experiment: Activity at nitrogen-starved wild type sigma1278b Gap1; conditions: Saccharomyces cerevisiae

| Molecule | Activity [4] | Ki [5] [µM] | Ki [6] [µM] | inhibition [7] [%] | Activity [8] | further results |
| --- | --- | --- | --- | --- | --- | --- |
| CC(C)C[C@H](N)C(=O)NCC(=O)O (H-Leu-Gly-OH) | inactive | 190 | – | – | – | Activity [1]: inactive; Activity [2]: Active; inhibition [3]: > 30% |
| N=C(N)NCCC[C@H](N)C(=O)N[C@@H](Cc1ccccc1)C(=O)N[C@@H](Cc1ccccc1)C(=O)O (H-Arg-Phe-Phe-OH) | – | – | 12000 | > 30 | Active | – |
| N[C@@H](CC(=O)N[C@@H](CCC(=O)O)c1ccccc1)C(=O)O | inactive | 105 | – | – | – | inhibition [9]: inactive; inhibition [10]: Active |
| CSCC[C@H](NC(=O)[C@@H](N)CC(C)C)C(N)=O (H-Leu-Met-NH2) | – | – | 5000 | > 30 | inactive | – |
| B1 | – | – | – | – | – | Km [11]: 37 µM |
